# Reference: ChEMBL document CHEMBL4342407, “Thieno[2,3-d]pyrimidine as a promising scaffold in medicinal chemistry: Recent advances” (Bioorg Med Chem, 2019)
# Legend:
# Candida albicans = assay: […] activity against Candida albicans assessed as zone inhibition at 500 ug/ml by cup plate agar diffusion method; assay type: functional; settings: for zone of inhibition at 500 µg/mL: read-out: IZ
# Escherichia coli [1] = assay: Antibacterial activity against Escherichia coli assessed as zone inhibition at 500 ug/ml by cup plate agar diffusion method; assay type: functional; settings: read-out: IZ
# Pseudomonas aeruginosa = assay: Antibacterial activity against Pseudomonas aeruginosa assessed as zone inhibition at 500 ug/ml by cup plate agar diffusion method; assay type: functional; settings: read-out: IZ
# Bacillus subtilis [2] = assay: Antibacterial activity against Bacillus subtilis assessed as zone inhibition at 500 ug/ml by cup plate agar diffusion method; assay type: functional; settings: read-out: IZ
# Staphylococcus aureus [3] = assay: Antibacterial activity against Staphylococcus aureus assessed as zone inhibition at 500 ug/ml by cup plate agar diffusion method; assay type: functional; settings: read-out: IZ
# Mus musculus [4] = assay: Analgesic activity in Swiss albino mouse assessed as protection against acetic acid-induced writhing at 15 mg/kg, po pretreated for 30 mins followed by acetic acid challenge and measured after 20 mins relative to control; assay type: functional
# Rattus norvegicus [5] = assay: Antiinflammatory activity in po dosed Wistar rat assessed as reduction in carrageenan-induced paw edema pretreated for 1 hr followed by carrageenan challenge and measured over 2 to 4 hrs post carrageenan challenge by plethysmography; assay type: functional
# [6] = Ulcerogenic activity in Sprague-Dawley rat assessed as ulcer index at 20 mg/kg, ip pretreated followed by pylorus ligation and measured at 4 hrs post ligation; assay type: toxicity, organism-based; settings: in vivo
# Mus musculus [7] = assay: Antiinflammatory activity in Swiss mouse assessed as inhibition of TPA-induced ear edema at 1 mg/ear applied topically and measured 4 hrs post-TPA challenge relative to control; assay type: functional
# Rattus norvegicus [8] = assay: Antiinflammatory activity in Wistar rat model of Freund's adjuvant-induced arthritis assessed as inhibition of arthritis by measuring reduction in paw volume at 75 mg/kg, po administered once daily for 8 days starting from day 7 post Freund's adjuvant treatment and measured after 18 days by mercury plethysmography relative to control; assay type: functional
# Rattus norvegicus [9] = assay: Antiinflammatory activity in Wistar rat assessed as inhibition of cotton pellet-induced granuloma at 75 mg/kg, po administered daily for 7 days and measured on day 8 relative to control; assay type: functional
# HepG2 [10] = assay: Antiproliferative activity against human HepG2 after 24 hrs by MTT assay; assay type: functional, cell-based; settings: HepG2, 24 h
# HeLa = assay: Antiproliferative activity against human HeLa after 24 hrs by MTT assay; assay type: functional, cell-based
# HEp-2 = assay: Antiproliferative activity against human Hep2 after 24 hrs by MTT assay; assay type: functional, cell-based; settings: HEp-2, 24 h
# PC-3 = assay: Antiproliferative activity against human PC3 after 24 hrs by MTT assay; assay type: functional, cell-based; settings: PC-3, 24 h
# MCF7 [11] = assay: Antiproliferative activity against human MCF7 after 24 hrs by MTT assay; assay type: functional, cell-based; settings: MCF7, 24 h
# HepG2 [12] = assay: Antiproliferative activity against human HepG2 cells by MTT assay; assay type: functional, cell-based
# MCF7 [13] = assay: Antiproliferative activity against human MCF7 by MTT assay; assay type: functional, cell-based
# MGC-803 = assay: Antiproliferative activity against human MGC803 at 50 ug/ml after 48 hrs by MTT assay; assay type: functional; settings: MGC-803, 48 h
# ECa-109 cell line = assay: Antiproliferative activity against human EC109 at 50 ug/ml after 48 hrs by MTT assay; assay type: functional; settings: ECa-109, 48 h
# HepG2 [14] = assay: Antiproliferative activity against human HepG2 at 50 ug/ml after 48 hrs by MTT assay; assay type: functional; settings: HepG2, 48 h
# Rattus norvegicus [15] = assay: Anti-ulcer activity in Wistar albino rat assessed as reduction in pylorus ligation induced ulcer at 250 mg/kg, ip pretreated for 1 hr followed by pylorus ligation and measured at 4 hrs post ligation; assay type: functional
# [16] = Ulcerogenic activity in Wistar albino rat assessed as ulcer index at 250 mg/kg, ip pretreated for 1 hr followed by pylorus ligation and measured at 4 hrs post ligation; assay type: toxicity, organism-based; settings: in vivo
# Rattus norvegicus [17] = assay: Antiinflammatory activity in Sprague-Dawley rat assessed as protection against carrageenan-induced edema at 40 mg/kg, po pretreated for 1 hr followed by carrageenan challenge and measured after 3 hrs by mercury plethysmometer relative to control; assay type: functional
# Staphylococcus aureus [18] = assay: Antibacterial activity against Staphylococcus aureus assessed as zone inhibition at 100 ug/ml; assay type: functional; settings: read-out: IZ
# Klebsiella pneumoniae = assay: Antibacterial activity against Klebsiella pneumoniae assessed as zone inhibition at 100 ug/ml; assay type: functional; settings: read-out: IZ
# Bacillus subtilis [19] = assay: Antibacterial activity against Bacillus subtilis assessed as zone inhibition at 100 ug/ml; assay type: functional; settings: read-out: IZ
# Escherichia coli [20] = assay: Antibacterial activity against Escherichia coli assessed as zone inhibition at 100 ug/ml; assay type: functional; settings: read-out: IZ
molecule,measurement,setting,value
c1ccc2c(c1)N=C(c1cnccn1)CC(c1cc3cncnc3s1)S2 (stereo not given),zone of inhibition at 500 µg/mL,Candida albicans,10.8 mm
same,zone of inhibition at 500 µg/mL,Escherichia coli [1],13.6 mm
same,zone of inhibition at 500 µg/mL,Pseudomonas aeruginosa,13.4 mm
same,zone of inhibition at 500 µg/mL,Bacillus subtilis [2],16.2 mm
same,zone of inhibition at 500 µg/mL,Staphylococcus aureus [3],15.7 mm
c1csc(C2=Nc3ccccc3SC(c3cc4cncnc4s3)C2)c1 (stereo not given),zone of inhibition at 500 µg/mL,Candida albicans,19.6 mm
same,zone of inhibition at 500 µg/mL,Escherichia coli [1],19.4 mm
same,zone of inhibition at 500 µg/mL,Pseudomonas aeruginosa,19.4 mm
same,zone of inhibition at 500 µg/mL,Bacillus subtilis [2],19.4 mm
same,zone of inhibition at 500 µg/mL,Staphylococcus aureus [3],19.2 mm
CC(=O)Oc1ccccc1C(=O)O [ASPIRIN],Activity,Mus musculus [4],53%
same,ED50,Rattus norvegicus [5],69.3 mg/kg
same,UI,[6],1.1 to 1.7
same,inhibition (INH),Mus musculus [7],20.1%
same,inhibition in vivo at 75 mg/kg,Rattus norvegicus [8],40%
same,inhibition in vivo at 75 mg/kg,Rattus norvegicus [9],30.1%
NYSTATIN,inhibition zone (IZ),Candida albicans,20.8 mm
CC(C)Cc1ccc(C(C)C(=O)O)cc1 (stereo not given) [IBUPROFEN],ED50,Rattus norvegicus [5],19.7 mg/kg
same,inhibition (INH),Mus musculus [7],40.2%
same,inhibition in vivo at 75 mg/kg,Rattus norvegicus [9],44.6%
COc1ccc(/C=C/C(=O)c2sc3nc(S)n(-c4ccccc4)c(=O)c3c2C)cc1,IC50,HepG2 [10],32.8 µM
same,IC50,HeLa,22.7 µM
same,IC50,HEp-2,39.5 µM
same,IC50,PC-3,28.9 µM
same,IC50,MCF7 [11],28.9 µM
Cc1ccccc1CNc1nc(C(F)(F)F)nc2sc3c(c12)CCC3,IC50,HepG2 [12],> 100 µM
same,IC50,MCF7 [13],83.6 µM
CCc1cc2c(=O)n(NC(c3ccc([N+](=O)[O-])cc3)P(=O)(OC(C)C)OC(C)C)c(C)nc2s1 (stereo not given),inhibition at 50 µg/mL,MGC-803,84.3%
same,inhibition at 50 µg/mL,ECa-109 cell line,58.5%
same,inhibition at 50 µg/mL,HepG2 [14],58.1%
C[C@]12CC[C@H]3[C@@H](CC=C4CC(O)CC[C@@]43C)[C@@H]1CC[C@@H]2c1csc(N)c1-c1nnc(S)n1-c1ccccc1 (stereo not given in full),inhibition in vivo at 250 mg/kg,Rattus norvegicus [15],64.2%
same,UI,[16],1.29
same,Activity,Rattus norvegicus [17],96%
COc1ccc(C2=NC3SC=C([C@H]4CC[C@H]5[C@@H]6CC=C7CC(O)CC[C@]7(C)[C@H]6CC[C@]45C)C3C(=O)N2N)cc1 (stereo not given in full),inhibition in vivo at 250 mg/kg,Rattus norvegicus [15],91.9%
same,UI,[16],0.29
same,Activity,Rattus norvegicus [17],92%
COc1ccc(NC(=O)c2sc3nc(N4CCOCC4)nc(-c4ccccc4)c3c2N)cc1,IC50,HeLa,61.9 µM
same,IC50,MCF7 [11],27.8 µM
FC(F)(F)c1nc(NCc2ccc(Cl)cc2)c2c3c(sc2n1)CCC3,IC50,HepG2 [12],8.63 µM
same,IC50,MCF7 [13],13.8 µM
c1cnc(C2=NOC(c3cc4cncnc4s3)C2)cn1 (stereo not given),zone of inhibition at 100 µg/mL,Staphylococcus aureus [18],11.5 mm
same,zone of inhibition at 100 µg/mL,Klebsiella pneumoniae,12.5 mm
same,zone of inhibition at 100 µg/mL,Bacillus subtilis [19],11 mm
same,zone of inhibition at 100 µg/mL,Escherichia coli [20],13 mm
c1csc(C2=NOC(c3cc4cncnc4s3)C2)c1 (stereo not given),zone of inhibition at 100 µg/mL,Staphylococcus aureus [18],12.5 mm
same,zone of inhibition at 100 µg/mL,Klebsiella pneumoniae,14.5 mm
same,zone of inhibition at 100 µg/mL,Bacillus subtilis [19],11.5 mm
same,zone of inhibition at 100 µg/mL,Escherichia coli [20],15.5 mm
Fc1cccc(CNc2nc(C(F)(F)F)nc3sc4c(c23)CCC4)c1,IC50,HepG2 [12],7.31 µM
same,IC50,MCF7 [13],5.18 µM
COc1cccc2c1C(=O)c1c(O)c3c(c(O)c1C2=O)C[C@@](O)(C(=O)CO)C[C@@H]3O[C@H]1C[C@H](N)[C@H](O)[C@H](C)O1 [DOXORUBICIN],IC50,HEp-2,6.32 µM
CC(=O)NN1C(S)=Nc2sc3c(c2C1c1ccccc1)CCCC3 (stereo not given),ED50,Rattus norvegicus [5],66.7 mg/kg
same,inhibition (INH),Mus musculus [7],35.1%
same,inhibition in vivo at 75 mg/kg,Rattus norvegicus [8],28.9%
same,inhibition in vivo at 75 mg/kg,Rattus norvegicus [9],39.9%
FC(F)(F)Oc1ccc(C2=Nc3ccccc3SC(c3cc4cncnc4s3)C2)cc1 (stereo not given),zone of inhibition at 500 µg/mL,Candida albicans,10.6 mm
same,zone of inhibition at 500 µg/mL,Escherichia coli [1],12.3 mm
same,zone of inhibition at 500 µg/mL,Pseudomonas aeruginosa,13.2 mm
same,zone of inhibition at 500 µg/mL,Bacillus subtilis [2],15.3 mm
same,zone of inhibition at 500 µg/mL,Staphylococcus aureus [3],15.1 mm
C[C@]12CC[C@H]3[C@@H](CC=C4C[C@H](O)CC[C@@]43C)[C@@H]1CC[C@@H]2c1csc(N)c1-c1nnc(SCC(=O)c2ccccc2)n1-c1ccccc1,inhibition in vivo at 250 mg/kg,Rattus norvegicus [15],76.9%
same,UI,[16],0.83
same,Activity,Rattus norvegicus [17],99%
Nc1c(C(=O)Nc2ccc(I)cc2)sc2nc(N3CCOCC3)nc(-c3ccccc3)c12,IC50,HeLa,60.8 µM
same,IC50,MCF7 [11],42.8 µM
